Test results reported in paper PMC5108032, “Discovery of a Quinoline-4-carboxamide Derivative with a Novel Mechanism of Action, Multistage Antimalarial Activity, and Potent in Vivo Efficacy” (Journal of Medicinal Chemistry, 2016).

How the values were obtained:
[1] = Intrinsic clearance (Cli) in mouse liver microsomes; assay type: in vitro ADME; conditions: mouse liver microsome
From the text: (§1) inhibition at top, C= EC50, D= slope, x= inhibitor concentration and y= % inhibition. […]
(§2) reach 100% of inhibition, B was fixed to 100 only when at least 50% of inhibition was reached.
(§3) Plasmodium falciparum late stage (IV-V) gametocyte high content imaging assay Plasmodium falciparum NF54-pfs16-LUC-GFP stage IV-V Gametocytes were produced as described previously.5 Compounds were solubilized in DMSO and serially diluted in three concentrations per log standard curves in DM SO. One µl of compound was subsequently diluted in 25µl of water (4% DMSO) and 5µl transferred into the base of 384 well PerkinElmer CellCarrier plates. Forty-five µl of stage IV-V gametocytes (10%P in 0.1%H) were added to the imaging plates which were in turn sealed with a gas permeable membrane and incubated at 37°C, 5% CO 2, 5% O2, 90% N2 and 60% humidity […]
(§4) Post incubation, 5µl of MitoTracker® Red CM -H2Xros (MTR) solution (0.66ug/ml) was added to all wells and the plates incubated for a further 16hours. The assay plates were then imaged and the number of viable gametocytes determined for test compounds plus 0.4%DMSO and 5µM Puromycin.
(§5) (0.4%DMSO) control values. Percent inhibition was plotted against log compound concentration using a 4 parameter log dose, non-linear regression analysis, with sigmoidal dose response (variable slope) curve fit using Prizm 4.0. IC50 values were obtained from this curve fit. The compound testing was performed in duplicate point within two separate experiments.
(§6) Plasmodium berghei ookinete development assay
(§7) Assay was performed as previously reported.6 Briefly blood containing P. berghei CTRPp-GFP gametocytes was rapidly harvested from infected mice and introduced to test compounds pre-diluted in ookinete medium (to induce gamete formation and support ookinete development) in 96-well plates. Plates were incubated in the dark at 21°C for 22 hr before GFP fluorescence intensity measured in a plate reader. % inhibition of ookinete formation was calculated with reference to the fluorescence intensity values of a positive control (20 µM cycloheximide) and a solvent-only negative control (DMSO). All assays were performed in triplicate independent experiments and EC50 values calculated in Graphpad Prism.
(§8) The aqueous solubility of the test compounds was measured using laser nephelometry, as described previously.7 Compounds were subject to serial dilution from 10 mg/mL to 0.5 mg/mL in DMSO. An aliquot was then mixed with MilliQ water to obtain an aqueous dilution plate with a final concentration range of 100 – 5 μg/mL, with a final DMSO concentration of 1.0%. Triplicate aliquots were transferred to a flat bottomed polystyrene plate which was immediately read on the NEPHELOstar (BMG Lab Technologies). The amount of laser scatter caused by insoluble particulates (relative nephelometry units, RNU) was plotted against compound concentration using a segmental regression fit, with the point of inflection being quoted as the compounds aqueous solubility (μg/mL; […]
(§9) Intrinsic Clearance (Cli) experiments
(§10) The procedure was carried out as reported previously.7 Test compound (0.5 µM) was incubated with female CD1 mouse, male sprague-dawley rat or pooled human mixed gender liver microsomes (Xenotech LLC TM; 0.5 mg/mL 50 mM potassium phosphate buffer, pH 7.4) and the reaction initiated […]
by the addition of excess NADPH (8 mg/mL 50 mM potassium phosphate buffer, pH 7.4).
Immediately, at time zero, then at 3, 6, 9, 15 and 30 min an aliquot (50 μL) of the incubation mixture was removed and mixed with acetonitrile (100 μL) to stop the reaction. Internal standard was added to all samples, the samples centrifuged to sediment precipitated protein and the plates then sealed prior to UPLC-MS/MS analysis using a Quattro Premier XE (Waters Corporation, USA).
XLfit (IDBS, UK) was used to calculate the exponential decay and consequently the rate constant (k) from the ratio of peak area of test compound to internal standard at each timepoint. The rate of […]

[2] = test system: Plasmodium falciparum strain 3D7; assay: Plasmodium falciparum screening, SYBR green growth inhibition; assay type: cell-based; conditions: 3D7, supplementary csv, read-out: Pf (3D7) EC50
Experimental: Plasmodium falciparum screening
Assays against P. falciparum were conducted as previously described.1 Cultures of the widely-used malaria reference strain of chloroquine-sensitive Plasmodium falciparum strain 3D7 were maintained in a 5% suspension of human red blood cells (obtained from East of Scotland Blood Transfusion Service, Ninewells Hospital, Dundee) cultured in RPMI 1640 medium (pH 7.3) supplemented with 0.5% Albumax II (Gibco Life Technologies, San Diego, CA), 12 mM sodium bicarbonate, 0.2 mM hypoxanthine and 20 mg/L gentamicin at 37°C, in a humidified atmosphere of 1% O 2, 3% CO2 with a balance of nitrogen. Growth inhibition was quantified using a fluorescence assay utilising the binding of SYBR green to double stranded DNA, which emits a fluorescent signal at 528 nm after excitation at 485nm.2 Mefloquine (potency range 30-60 nM) was used as a drug control to monitor the quality of the assay (Z’ = 0.6 to 0.8, Signal to background >3, where Z’ is a measure of the discrimination between the positive and negative controls on a screen plate). A 96-well [3H]-Hypoxanthine incorporation assay was also developed as a secondary assay in order to validate compounds from the initial screen in an orthogonal platform.3 Compound bioactivity from both assays was expressed as […]
P. falciparum (panel of resistant strains) in vitro assay. (Swiss TPH)
All Plasmodium strains were cultured according to Trager and Jensen and are described at www.beiresources.org (resistant strains: K1, W2, 7G8, TM90C2A, D6 and V1/S, sensitive strain:
NF54). EC50 values were determined in vitro by measuring incorporation of the nucleic acid precursor […]
Mammalian Cell Growth Inhibition assay
A counter-screen against normal diploid human fibroblasts (MRC-5 cell line) was carried out to exclude non-selective, and toxic compounds. The assay was essentially carried out as described previously.4 Cells were plated and incubated overnight to allow them to adhere as monolayers. A working stock of each test compound was transferred to an intermediate 384-well plate and pre-diluted with minimum essential media (MEM). The pre-diluted stocks were then transferred onto the cell monolayers, and the plates were incubated for 68 h. Resazurin, to a final concentration of 50 μM, was added to each well, after which plates were incubated for a further 3 h and measured for fluorescence (λex=528 nm, λem=590 nm)
In vitro Cell Assay Data Analysis.
All data was processed using IDBS ActivityBase® raw data was converted into per cent inhibition through linear regression by setting the high inhibition control as 100% and the no inhibition control as 0%. Quality control criteria for passing plates were as follows: Z’> 0.5, S:B> 3, %CV(no inhibition < 15 . The formula used to calculate Z’ is 1 3× (St D e v _ hi gh + St D e v _ low) . […]
All EC50 Curve fitting was undertaken using XLFit version 4.2 using Model 205 with the following 4 parametric equation: y = A + B A A + ($-&) ,where A=% inhibition at bottom, B=% […]
as §1, §2, §3
Post incubation, 5µl of MitoTracker® Red CM -H2Xros (MTR) solution (0.66ug/ml) was added to all wells and the plates incubated for a further 16hours. […]

[3] = Intrinsic clearance (Cli) in rat liver microsomes; assay type: in vitro ADME; conditions: rat liver microsome
From the text: as §1, §2, §3, §4, §5, §6, §7, §8, §9, §10
by the addition of excess NADPH (8 mg/mL 50 mM potassium phosphate buffer, pH 7.4). […]

Row | Compound | MLM Cli [1] | EC50 [2] | RLM Cli [3]
1 | O=C(NCCN1CCCC1)c1cc(-c2ccc(CN3CCOCC3)cc2Cl)nc2ccc(F)cc12 [Compound 42, 2-(2-Chloro-4-(morpholinomethyl)phenyl)-6-fluoro-N-(2-(pyrrolidin-1-yl)ethyl)quinoline-4-carboxamide] | 0.5 mL min^–1 g^–1 |  | 
2 | O=C(NCCN1CCCC1)c1cc(NCCCCN2CCOCC2)nc2ccc(Cl)cc12 [Compound 27, 6-Chloro-2-((4-morpholinobutyl)amino)-N-(2-(pyrrolidin-1-yl)ethyl)quinoline-4-carboxamide] | 2.0 mL min^–1 g^–1 | 3.8 nM | 
3 | O=C(NCCN1CCCC1)c1cc(-c2ccc(CN3CCOCC3)cc2F)nc2ccc(F)cc12 [Compound 41] | <0.5 mL min^–1 g^–1 | 1.9 nM | <0.5 mL min^–1 g^–1
4 | O=C(NCCN1CCCC1)c1cc(NCCC2CCOCC2)nc2ccc(Cl)cc12 [Compound 30, 6-Chloro-N-(2-(pyrrolidin-1-yl)ethyl)-2-((2-(tetrahydro-2H-pyran-4-yl)ethyl)amino)quinoline-4-carboxamide] | 2 mL min^–1 g^–1 |  | 0.8 mL min^–1 g^–1
5 | O=C(NCCN1CCCC1)c1cc(-c2ccc(S(=O)(=O)N3CCOCC3)cc2)nc2ccc(F)cc12 [Compound 38, 6-Fluoro-2-(4-(morpholinosulfonyl)phenyl)-N-(2-(pyrrolidin-1-yl)ethyl)quinoline-4-carboxamide] | 1.9 mL min^–1 g^–1 | 4.4 nM | 
6 | O=C(NCCN1CCCC1)c1cc(NCCCN2CCOCC2)nc2ccc(F)cc12 [Compound 25, 6-Fluoro-2-((3-morpholinopropyl)amino)-N-(2-(pyrrolidin-1-yl)ethyl)quinoline-4-carboxamide] | 0.8 mL min^–1 g^–1 |  | <0.5 mL min^–1 g^–1
